Data: patent publication US10280158B2, “Immune adjustment compound, use thereof and pharmaceutical composition comprising same” (SUZHOU CONNECT BIOPHARMACEUTICALS, LTD., priority 2013, dated 2019)

Experiments:
[1] = In vivo pharmacokinetic experiment, oral administration; design: species or system Sprague Dawley rats; conditions: for half-life / AUC(0-inf) / Cmax / Tmax: male, Sprague-Dawley, rat, plasma; for half-life: po, 3 mg/kg; for elimination speed after the highest concentration, compared with compounds 1 and 5: oral administration, FIGS. 1A and 1B
Procedure: (§1) In this Example, the pharmacokinetic properties of compounds 1, 2, 3, 4 and 5 were evaluated via. i.v. and p.o. dosing to Sprague Dawley rats.
(§2) Experimental animals used in this Example and hereinafter were male SD rats of 7-9 weeks old, with body weight ranging from 186 to 231 g, which were purchased from Beijing Vital River Laboratory Animal Technology Co., Ltd. The animals were quarantined by veterinarian for 5 days after purchase, then animals had passed quarantine inspection were selected to be tested under SPE conditions, wherein the tested animals are assigned into 3 rats per group as follows.
Oral administration group: 2.74 mg of each of compounds 1-5 was respectively prepared into a solution of 0.3 mg/mL by using 9.113 mL 0.5% CMC-Na as a diluent. Each solution was vortexed 1-2 mins after mixed fully, and then was ultrasonically treated for 20-30 mins until a uniform suspension was obtained. The uniform suspension was used as medicine administrated to oral administration group, and the administration was conducted with a dose of 10 mL/kg body weight of each rat.
(§3) For both oral administration group and intravenous administration group, blood samples were collected at 0.0833 h (5 min), 0.25 h (15 min), 0.5 h, 1 h, 2 h, 4 h, 8 h, and 24 h after administration. After isoflurane anesthesia 0.3 mL whole blood was collected from orbital venous plexus of the animals at each time point. The animals would be euthanized after all samples were collected.
(§4) The collected blood samples were placed in EP tubes containing heparin sodium (about 10 μl, 1000 IU/mL), which were then placed in trash ice immediately, and centrifuged at 4,000 rpm and a low temperature (4° C.) for 5 minutes. The plasma was isolated rapidly and then stored at −20° C. until analysis.
(§5) The concentration of each compound in blood was measured by LC-MS/MS-001 (Q-trap-3200) with osalmide as internal standard material, as follows. 24 μL blank plasma was added into 6 μL plasma sample (5 times of dilution), and then a solution of acetonitrile containing 150 μL internal standard material (osalmide in 100 μg/mL) was added in. The mixture was shaken for 5 minutes, and then centrifuged at 4,000 rpm for 5 minutes. 2 μL of the obtained sample was implanted into LC-MS/MS for analysis. As for undiluted plasma sample, 30 μL of it was added into a solution of acetonitrile containing 150 μL internal standard material (osalmide in 100 μg/mL). The mixture was shaken for 5 minutes, and then centrifuged at 4,000 rpm for 5 minutes. 2 μL of the obtained sample was implanted into LC-MS/MS for analysis.
(§6) As for data analysis, WinNolin (V6.2) non-compartment model (NCA) was used for calculating main metabolic pharmacokinetic parameters including t1/2, AUC(0−t), AUCinf, V, Cl, MRT, etc., and Microsoft Office EXCEL was used for calculating mean values, standard deviations and coefficients of variation.

[2] = In vivo pharmacokinetic experiment, intravenous administration; design: species or system Sprague Dawley rats; conditions: for mean residence time (MRT) compared with compound 1 / terminal half-life compared with compound 1: intravenous administration, rats, in words; for AUC(0-inf) / MRT inf / clearance / half-life / Vd: male, Sprague-Dawley, rat, plasma, intravenous administration (1 mg/kg), SD rats; for half-life: read-out: T½ (converted); for Vd: read-out: Vss
Procedure: as §1, §2
Intravenous administration group: 1.61 mg of each of compounds 1-5 was respectively prepared into a solution of 1 mg/mL by using 1.610 mL 10% HP-β-CD as a diluent. Each solution was vortexed 1-2 mins after mixed fully, and then was ultrasonically treated for 28-30 mins. The obtained solution was used as medicine administrated to intravenous administration group, and the administration was conducted with a dose of 1 mL/kg body weight of each rat.
as §3, §4, §5, §6

human S1P1 = target: T1, human S1P1 (Homo sapiens, UniProt P21453); test: Internalization effect experiment on S1P1 (CHO-S cells, Myc tag, flow cytometry); assay type: cell-based; conditions: for EC50: CHO-S cells expressing human S1P1, 1 hour at 37° C., read-out: Receptor Internalization (EC50) S1P1; for activity of inducing S1P1 internalization: CHO-S cells expressing human S1P1, in words
T1 construct: expressed in transfected cells; host or cells: CHO-S cells
T1 sequence (P21453 whole entry): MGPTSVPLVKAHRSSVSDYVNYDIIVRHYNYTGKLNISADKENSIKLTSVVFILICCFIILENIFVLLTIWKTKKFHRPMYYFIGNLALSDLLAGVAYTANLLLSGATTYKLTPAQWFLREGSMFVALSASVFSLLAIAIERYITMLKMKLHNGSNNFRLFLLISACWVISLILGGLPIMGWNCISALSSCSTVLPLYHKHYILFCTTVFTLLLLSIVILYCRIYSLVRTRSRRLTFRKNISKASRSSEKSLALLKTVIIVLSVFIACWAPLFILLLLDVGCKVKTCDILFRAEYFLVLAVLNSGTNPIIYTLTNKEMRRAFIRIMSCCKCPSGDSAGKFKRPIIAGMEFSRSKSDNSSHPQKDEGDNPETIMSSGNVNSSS
Excerpt: It is well known that S1P1 small molecule agonists can prevent lymphocytes from entering the peripheral circulation by inducing internalization of S1P1 on cell surface. In order to determine whether the compounds provided by present invention have an activity of inducing S1P1 internalization, CHO—S cells expressing human S1P1, to replace the lymphocytes, are used as detection system of S1P1 internalization. For ease of monitoring the S1P1 on cell surface, a Myc tag is fused to N-terminal of S1P1, thus the expression of S1P1 is analyzed by flow cytometry after incubating the cells with fluorescent-labeled antibody against the Myc tag.
A 10 mM stock solution was prepared by dissolving compound 2 provided by the present invention in dimethyl sulfoxide (DMSO), and then the stock solution was diluted to different concentrations as desired with DMEM. CHO—S cells bearing human S1P1 with Myc tag were harvested and then adjusted to a density of one million cells per mL by Dulbecco's modified Eagle's medium (DMEM). Different concentrations of Compound 2 diluted in an equal volume were mixed and the cell suspension and then incubated at 37° C. for 1 hour. After incubation, the mixture was centrifuged at 800 RPM for 5 minutes to obtain the cells. The cells were resuspended in FACS buffer (PBS containing 1% BSA), and Myc antibody labelled with fluorescein isothiocyanate (FITC) (from Californian Miltenyi Biotec GmbH, USA) was added in and incubated for 1 hour on ice. The cells were washed, resuspended in pre-cooled FACS buffer and analysed by FACS Calibur flow cytometry.

human S1P3 = human S1P3 (Homo sapiens, UniProt Q99500); test: Internalization effect experiment of S1P3 (CHO-S cells); assay type: cell-based; conditions: for internalization activation effect on S1P3 subtype: CHO-S cells expressing human S1P3, in words; for EC50: CHO-S cells expressing human S1P3, read-out: Receptor Internalization (EC50) S1P3
Chain of human S1P3 (Q99500 whole entry): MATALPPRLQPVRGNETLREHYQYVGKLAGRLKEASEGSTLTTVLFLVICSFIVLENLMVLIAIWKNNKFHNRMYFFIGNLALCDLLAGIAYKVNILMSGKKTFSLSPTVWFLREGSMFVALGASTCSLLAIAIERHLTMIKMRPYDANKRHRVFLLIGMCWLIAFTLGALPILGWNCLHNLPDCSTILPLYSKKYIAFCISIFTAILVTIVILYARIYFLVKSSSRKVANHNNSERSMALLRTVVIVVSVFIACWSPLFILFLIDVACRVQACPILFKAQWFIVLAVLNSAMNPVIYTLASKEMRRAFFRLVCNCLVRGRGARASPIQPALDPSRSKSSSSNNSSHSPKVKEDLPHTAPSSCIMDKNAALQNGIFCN
Procedure: CHO—S cells bearing human S1P1 with Myc tag were harvested and then adjusted to a density of one million cells per mL by Dulbecco's modified Eagle's medium (DMEM). […] After incubation, the mixture was centrifuged at 800 RPM for 5 minutes to obtain the cells. The cells were resuspended in FACS buffer (PBS containing 1% BSA), and Myc antibody labelled with fluorescein isothiocyanate (FITC) (from Californian Miltenyi Biotec GmbH, USA) was added in and incubated for 1 hour on ice. The cells were washed, resuspended in pre-cooled FACS buffer and analysed by FACS Calibur flow cytometry.
CHO—S cells expressing human S1P3 were used to perform internalization detection test. Besides cells, experimental method was the same with the method of the internalized detection experiment of S1P1.

[3] = after oral administration, rats
[4] = after oral administration, rats, read-out: terminal half-life (converted)
[5] = oral administration (3 mg/kg), SD rats, read-out: T½ (converted)
[6] = oral administration (3 mg/kg), SD rats

half-life shortening relative to compound 1 [1, 3] | half-life [1, 4] | half-life [1, 5] | AUC(0-inf) [1, 6] | Cmax [1, 6] | Tmax [1, 6] | F [1, 6] | elimination speed after the highest concentration, compared with compounds 1 and 5 ([1]; rats, in words) | mean residence time (MRT) compared with compound 1 [2] | terminal half-life compared with compound 1 [2] | AUC(0-inf) [2] | MRT inf [2] | clearance [2] | half-life [2] | Vd [2] | EC50 (human S1P1) | EC50 (human S1P3) | half-life compared with compound 1 ([1]; oral and intravenous (Tables 1 and 2), rats, in words) | SMILES | activity of inducing S1P1 internalization (human S1P1) | internalization activation effect on S1P3 subtype (human S1P3)
~50% | < 330 min | 318 ± 30.6 min | 8110 ± 469 ng·h/mL | 681 ± 61.1 ng/mL | 3.33 h | 96.1% | accelerated obviously | reduced significantly | reduced significantly | 2770 ± 410 ng·h/mL | 5.11 ± 0.39 h | 6.1 mL/min/kg | 302 ± 22.2 min | 2.65 ± 0.229 L/kg | 3.21 nM | > 1000 nM | – | CC(C)Cc1ccc(-c2nc(-c3ccc(CN4CC(C(=O)O)C4)c(Cl)c3)no2)cc1 [Compound 3, 1-{2-chloro-4-[5-(4-isobutylphenyl)-1,2,4-oxadiazol-3-yl]-benzyl}-3-azetidine carboxylic acid] | no significant difference with that of compound 1 | no internalization activation effect on S1P3 subtype
– | – | 738 ± 125 min | 5460 ± 401 ng·h/mL | 249 ± 8.74 ng/mL | 3.33 h | 74.0% | – | – | – | 2200 ± 89.5 ng·h/mL | 12.9 ± 1.24 h | 7.57 mL/min/kg | 606 ± 61.2 min | 5.87 ± 0.802 L/kg | – | – | extended rather than shortened | Cc1cc(-c2noc(-c3ccc(CC(C)C)cc3)n2)ccc1CN1CC(C(=O)O)C1 [Compound 5, 1-{2-methyl-4-[5-(4-isobutylphenyl)-1,2,4-oxadiazol-3-yl]-benzyl}-3-azetidine carboxylic acid] | – | –
~50% | < 330 min | 322 ± 9 min | 4420 ± 449 ng·h/mL | 346 ± 29.6 ng/mL | 1.15 h | 52.9% | accelerated obviously | reduced significantly | reduced significantly | 2770 ± 200 ng·h/mL | 5.23 ± 0.36 h | 6.03 mL/min/kg | 317 ± 36 min | 2.75 ± 0.112 L/kg | 4.2 nM | > 1000 nM | – | CC(C)Cc1ccc(-c2nc(-c3ccc(CN4CC(C(=O)O)C4)c(Br)c3)no2)cc1 [Compound 4, 1-{2-bromo-4-[5-(4-isobutylphenyl)-1,2,4-oxadiazol-3-yl]-benzyl}-3-azetidine carboxylic acid] | no significant difference with that of compound 1 | no internalization activation effect on S1P3 subtype
– | ~660 min | 636 ± 64.2 min | 6200 ± 147 ng·h/mL | 365 ± 51.5 ng/mL | 2 h | 82.5% | – | – | – | 2380 ± 329 ng·h/mL | 11 ± 1.2 h | 7.12 mL/min/kg | 521 ± 48 min | 4.65 ± 0.389 L/kg | 5.69 nM | > 1000 nM | – | CC(C)Cc1ccc(-c2nc(-c3ccc(CN4CC(C(=O)O)C4)cc3)no2)cc1 [Compound 1, 1-{4-[5-(4-isobutylphenyl)-1,2,4-oxadiazol-3-yl]-benzyl}-3-azetidine carboxylic acid, reference compound] | – | –
